# Where “and” joins values, the source holds several entries; their conditions need not be identical. Equal entries are not always repeated. Where two headings read alike, the source gives them in different places.
# Experiment: Pharmacokinetics of AT and NT in healthy volunteers after a single dose of 25 mg amitriptyline
# Assay type: in vivo, human
# Conditions: for AUC(0-inf) / AUC(0-t) / Cmax / Tmax / half-life: both sexes, human, plasma, po, 25 mg, single oral 25 mg AT; for AUC(0-t): read-out: AUC48h; for Cmax: read-out: Cmax
# Source text: In order to enrich the study sample with the less frequent functionally deficient OCT1 variants, participants were selected based on OCT1 genotype from an internal database at the Institute of Clinical Pharmacology of the University Medical Center Göttingen. All volunteers who are listed in the internal database had agreed to it and the database was approved by the ethics committee of the University of Göttingen. […] Additional subjects with heterozygous genotypes were included to provide a better understanding of the effects of specific variants and the mode of inheritance. All volunteers gave their written informed consent before participation in the study. The study was approved by the ethics committee of the University of Göttingen and the German Federal Institute for Drugs and Medical Devices (BfArM). It was registered at the clinical trials databases Clinicaltrials.gov (NCT02054299) and EudraCT (number 2012-003546-33). […] Volunteers who underwent regular drug treatments other than oral contraceptives or who suffered from any relevant chronic illness, as well as pregnant or lactating women, were not included. All subjects were healthy according to a detailed medical history, medical examination, electrocardiogram, urine status and clinical chemistry, and haematology parameters (sodium, potassium, total bilirubin, aspartate aminotransferase, alanine-aminotransferase, creatinine, C-reactive protein, thyroid-stimulating hormone, haemoglobin, erythrocyte, thrombocyte, and leucocyte counts). […] After centrifugation (13,000 rpm, 15 min, room temperature), two-thirds of the supernatant were transferred to a new reaction tube and evaporated at 40°C under nitrogen flow. The residue was reconstituted under shaking in 0.1% methanoic acid and briefly centrifuged before quantification using a Nexera UHPLC system (Shimadzu, Kyoto, Japan) coupled to an API 4000 tandem mass spectrometer (AB Sciex, Darmstadt, Germany). […] PerkinElmer, Rodgau, Germany) with a Phenomenex C18 pre-column (4 × 2 mm, Phenomenex, Aschaffenburg, Germany). […] The lower limit of quantification was 0.5 ng/ml for AT and 0.1 ng/ml for NT. […] The mass spectrometry detection parameters are listed in Supplementary Table S1. For the study in healthy volunteers, the primary endpoints were the AUCs of plasma AT and NT concentrations. Secondary endpoints were the other pharmacokinetic parameters of AT and NT, as well as heart rate, blood pressure, pupil size effects, and possible adverse events (headache, fatigue, visual or hearing impairments, restlessness, nausea, dizziness, dry mouth, tremor, as well as sensations of hypothermia and heart palpitations determined using a visual analogue scale test). Pharmacokinetic parameters were calculated by non-compartmental analysis using Phoenix 64 WinNonlin version 6.3 (Certara Inc., Princeton, NJ, United States). AUCinf of AT was calculated from the time of dosing using the linear/log trapezoidal rule and extrapolated to infinity based on the last predicted concentration and using the terminal elimination rate constant (lambda z). AUC of NT was calculated from the time of dosing until the last measurement at 48 h using the linear/log trapezoidal rule, as a decline in NT concentrations was not observed in some subjects and extrapolation to infinity thus not possible.
# [1] = healthy volunteers, 0 active OCT1 alleles (n = 12)
# [2] = healthy volunteers, 1 active OCT1 allele (n = 9)
# [3] = healthy volunteers, 2 active OCT1 alleles (n = 14)
# [4] = healthy volunteers, CYP2C19 activity score 1 (n = 5), mean
# [5] = healthy volunteers, CYP2C19 activity score 1.5 (n = 2), mean
# [6] = healthy volunteers, CYP2C19 activity score 2 (n = 16), mean
# [7] = healthy volunteers, CYP2C19 activity score 2.5 (n = 10), mean
# [8] = healthy volunteers, CYP2D6 activity 0 (n = 3), mean
# [9] = healthy volunteers, CYP2D6 activity 0.5 (n = 2), mean
# [10] = healthy volunteers, CYP2D6 activity 1 (n = 10), mean
# [11] = healthy volunteers, CYP2D6 activity 1.5 (n = 6), mean
# [12] = healthy volunteers, CYP2D6 activity 2 (n = 11), mean
# [13] = healthy volunteers, CYP2D6 activity 2.5 (n = 1), mean
# [14] = healthy volunteers, CYP2D6 activity 3 (n = 2), mean
smiles,measurement,setting,value
"CN(C)CCC=C1c2ccccc2CCc2ccccc21 [Amitriptyline, amitriptyline]",maximum concentration of unbound AT in the portal vein (estimated),"based on the calculations by Ahlin et al. and Ito et al., listed as AT",745.9 µg/L and 2.69 µM
same,AUC(0-inf),"35 healthy volunteers, read-out: AUCinf (range over all volunteers)",110 to 430 ng·h/mL
same,AUC(0-t),[1],162 ± 40.5 ng·h/mL
same,AUC(0-inf),"healthy volunteers, 0 active OCT1 alleles (n = 12), read-out: AUCinf",199 ± 60 ng·h/mL
same,Cmax,[1],9.9 ± 3.9 ng/mL
same,AUC(0-t),[2],184 ± 56 ng·h/mL
same,AUC(0-inf),"healthy volunteers, 1 active OCT1 allele (n = 9), read-out: AUCinf",228 ± 72.4 ng·h/mL
same,Cmax,[2],10.5 ± 3.3 ng/mL
same,AUC(0-t),[3],194 ± 66.3 ng·h/mL
same,AUC(0-inf),"healthy volunteers, 2 active OCT1 alleles (n = 14), read-out: AUCinf",243 ± 87.5 ng·h/mL
same,Cmax,[3],11.6 ± 4 ng/mL
same,AUC(0-t),[4],183 ng·h/mL
same,AUC(0-inf),"healthy volunteers, CYP2C19 activity score 1 (n = 5), mean, read-out: AUCinf",231 ng·h/mL
same,Cmax,[4],11.1 ng/mL
same,AUC(0-t),[5],256 ng·h/mL
same,AUC(0-inf),"healthy volunteers, CYP2C19 activity score 1.5 (n = 2), mean, read-out: AUCinf",317 ng·h/mL
same,Cmax,[5],16.2 ng/mL
same,AUC(0-t),[6],172 ng·h/mL
same,AUC(0-inf),"healthy volunteers, CYP2C19 activity score 2 (n = 16), mean, read-out: AUCinf",210 ng·h/mL
same,Cmax,[6],10.5 ng/mL
same,AUC(0-t),[7],171 ng·h/mL
same,AUC(0-inf),"healthy volunteers, CYP2C19 activity score 2.5 (n = 10), mean, read-out: AUCinf",211 ng·h/mL
same,Cmax,[7],9.5 ng/mL
same,AUC(0-t),[8],236 ng·h/mL
same,AUC(0-inf),"healthy volunteers, CYP2D6 activity 0 (n = 3), mean, read-out: AUCinf",311 ng·h/mL
same,Cmax,[8],10.9 ng/mL
same,AUC(0-t),[9],166 ng·h/mL
same,AUC(0-inf),"healthy volunteers, CYP2D6 activity 0.5 (n = 2), mean, read-out: AUCinf",214 ng·h/mL
same,Cmax,[9],12.7 ng/mL
same,AUC(0-t),[10],199 ng·h/mL
same,AUC(0-inf),"healthy volunteers, CYP2D6 activity 1 (n = 10), mean, read-out: AUCinf",251 ng·h/mL
same,Cmax,[10],11.9 ng/mL
same,AUC(0-t),[11],184 ng·h/mL
same,AUC(0-inf),"healthy volunteers, CYP2D6 activity 1.5 (n = 6), mean, read-out: AUCinf",226 ng·h/mL
same,Cmax,[11],10.3 ng/mL
same,AUC(0-t),[12],162 ng·h/mL
same,AUC(0-inf),"healthy volunteers, CYP2D6 activity 2 (n = 11), mean, read-out: AUCinf",196 ng·h/mL
same,Cmax,[12],10 ng/mL
same,AUC(0-t),[13],142 ng·h/mL
same,AUC(0-inf),"healthy volunteers, CYP2D6 activity 2.5 (n = 1), mean, read-out: AUCinf",158 ng·h/mL
same,Cmax,[13],7 ng/mL
same,AUC(0-t),[14],130 ng·h/mL
same,AUC(0-inf),"healthy volunteers, CYP2D6 activity 3 (n = 2), mean, read-out: AUCinf",157 ng·h/mL
same,Cmax,[14],10.2 ng/mL
same,Tmax,[1],3.4 ± 1.6 h
same,half-life,[1],20.3 ± 3.8 h
same,Tmax,[2],3.1 ± 1 h
same,half-life,[2],20.5 ± 3.9 h
same,Tmax,[3],2.9 ± 1.4 h
same,half-life,[3],21 ± 4 h
same,Tmax,[4],2.6 h
same,half-life,[4],21.6 h
same,Tmax,[5],2 h
same,half-life,[5],20.3 h
same,Tmax,[6],3.2 h
same,half-life,[6],20.1 h
same,Tmax,[7],3.6 h
same,half-life,[7],19.8 h
same,Tmax,[8],3.4 h
same,half-life,[8],23.7 h
same,Tmax,[9],2 h
same,half-life,[9],24.2 h
same,Tmax,[10],2.7 h
same,half-life,[10],21.4 h
same,Tmax,[11],3.7 h
same,half-life,[11],19.8 h

# Reference: publication PMC8175851, “Effects of Genetic Polymorphism in CYP2D6, CYP2C19, and the Organic Cation Transporter OCT1 on Amitriptyline Pharmacokinetics in Healthy Volunteers and Depressive Disorder Patients” (Frontiers in Pharmacology, 2021)
